Assay results taken from publication PMC5048182, “Structure and specificity of the Type VI secretion system ClpV-TssC interaction in enteroaggregative Escherichia coli” (Scientific Reports, 2016).
Entries after “also recorded” stand apart in the source; their conditions may differ.

Test system: ClpV1-Nt (ClpV1 N-terminal domain)
Assay: Microscale thermophoresis (MST), binding of TssC N-terminal peptides to ClpV1-Nt
Design: species or system enteroaggregative Escherichia coli
Conditions: 200 nM labeled ClpV1-Nt vs up to 500 μM peptide, 25 mM Tris-HCl pH 7.5, 200 mM NaCl, glycerol 5%, 0.05% Tween-20, triplicate
Description: E. coli BL21 (DE3) pLysS cells carrying the pETG20A-ClpV1-Nt plasmid were grown at 37 °C in TB medium (1.2% peptone, 2.4% yeast extract, 72 mM K2HPO4, 17 mM KH2PO4, and 0.4% glycerol). Expression of clpV1-Nt was induced at A600 = 0.6 with 0.5 mM IPTG for 18 hours at 25 °C. Cells were then resuspended in lysis buffer (50 mM Tris-HCl pH 8.0, 300 mM NaCl, 1 mM EDTA, 0.5 mg/mL lysozyme, 1mM phenylmethylsulfonyl fluoride), submitted to several freeze-thawing cycles and sonicated after the addition of 20 μg/mL DNase and 20 mM MgCl2. Pellet and soluble fraction were separated by centrifugation for 30 min at 16,000 × g. The soluble fraction containing ClpV1-Nt was loaded onto a 5-mL Ni^2+ affinity column (HisTrap™ FF) using an ÄKTA Explorer apparatus (GE healthcare) and the immobilized proteins were eluted in 50 mM Tris-HCl pH8.0, 300 mM NaCl supplemented with 250 mM imidazole. The protein solution was desalted on a HiPrep 26/10 column (Sephadex^TM G-25, Amersham Biosciences), and ClpV1-Nt was obtained by cleavage using 2 mg of TEV protease for 18 hours at 4 °C and collected in the flow-through of a 5-mL Nickel column. The protein was concentrated using the centricon technology (Millipore, 10-kDa cut-off). […]
Microscale thermophoresis experiments were performed using a Monolith NT.115 apparatus (NanoTemper). […] Each data point was measured in triplicate. […]

ATDDCLEEIINNTRA [TssC2 peptide, TssC2 (residues 15–29), […], synthesized by Genscript]
binding to ClpV1-Nt (in words): no binding; also recorded: no interaction
